According to ChEMBL document CHEMBL2375245, “Virtual medicinal chemistry: in silico pre-docking functional group transformation for discovery of novel inhibitors of botulinum toxin serotype A light chain” (Bioorg Med Chem Lett, 2013):
pKi: −log10 of the molar value.

Target: T1, Botulinum neurotoxin type A (Clostridium botulinum, UniProt P0DPI0)
Test: Inhibition of Clostridium botulinum BoNT/A light chain (1 to 429 amino acid) using Abz-Thr-dArg-Ile-Asp-Glu-Ala-Asn-Gln-Arg-Ala-Thr-Lys-Nle-Lys(Dnp)-NH2 as substrate after 10 mins by FRET assay

T1 sequence (P0DPI0 2-448 limits assumed): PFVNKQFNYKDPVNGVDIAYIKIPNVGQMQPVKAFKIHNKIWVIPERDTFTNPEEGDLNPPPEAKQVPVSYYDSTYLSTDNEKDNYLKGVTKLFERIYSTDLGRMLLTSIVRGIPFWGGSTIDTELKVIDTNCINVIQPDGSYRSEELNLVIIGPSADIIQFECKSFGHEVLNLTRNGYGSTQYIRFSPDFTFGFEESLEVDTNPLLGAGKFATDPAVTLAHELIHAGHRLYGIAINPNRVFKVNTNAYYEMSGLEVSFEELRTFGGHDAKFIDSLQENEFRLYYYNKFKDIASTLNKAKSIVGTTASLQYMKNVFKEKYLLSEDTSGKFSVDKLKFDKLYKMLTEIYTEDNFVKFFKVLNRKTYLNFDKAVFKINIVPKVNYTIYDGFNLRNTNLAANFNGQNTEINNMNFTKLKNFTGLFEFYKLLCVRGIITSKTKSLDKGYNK

`O=C(NC(Cc1c[nH]c2ccccc12)C(=O)NO)c1ccco1` (stereo not given) and `Cc1ccc(C(=O)NC(Cc2c[nH]c3ccccc23)C(=O)NO)o1` (stereo not given) cannot be ordered by pKi: under 3.52 for the first, under 3.52 for the second.

`NC(=O)C1CC(C(=O)NO)=NN1c1ccccc1` (stereo not given) and `O=C(CC1C(=O)NCCN1C/C=C/c1ccccc1)NO` (stereo not given) cannot be ordered by pKi: under 3.52 for the first, under 3.52 for the second.

`Cc1nnc(SCC(=O)NO)n1Cc1ccccc1` and `Cc1nnc(SCc2ccccc2C(=O)NO)n1C` cannot be ordered by pKi: under 3.52 for the first, under 3.52 for the second.

`O=C(NC(Cc1ccccc1)C(=O)NO)C1CCCCC1` (stereo not given) and `O=C(COc1ccccc1)NC(Cc1ccccc1)C(=O)NO` (stereo not given) cannot be ordered by pKi: under 3.52 for the first, under 3.52 for the second.

`COc1ccc(CN2CCNC(=O)C2CC(=O)NO)cc1OC` (stereo not given) and `O=C(CC1Sc2ccccc2NC1=O)NO` (stereo not given) cannot be ordered by pKi: under 3.52 for the first, under 3.52 for the second.

Going from `O=C(NC(Cc1c[nH]c2ccccc12)C(=O)NO)c1ccc(Cl)s1` (stereo not given) to `O=C(NC(Cc1c[nH]c2ccccc12)C(=O)NO)c1ccc(F)cc1` (stereo not given), the pKi rises from under 3.52 to 3.67.

Going from `O=C(CN1C(=O)c2ccccc2C1c1c[nH]c2ccccc12)NO` (stereo not given) to `O=C(CCN1C(=O)c2ccccc2C1c1c[nH]c2ccccc12)NO` (stereo not given), the pKi rises from under 3.52 to 3.71.

First: O=C(NO)c1ccccc1-c1ccccc1C(=O)Nc1ccccn1
Second: O=C(CCC(=O)N(c1ccccc1)c1ccccc1)NO
The pKi of the first is higher: 4.68 for the first, under 3.52 for the second. The first binds more tightly here.

`O=C(CNC(=O)c1ccc2noc(-c3ccccc3)c2c1)NO` and `O=C(Cn1nc(Cc2ccccc2)c2ccccc2c1=O)NO` are within 0.2 log units of each other in pKi: 4.11 for the first, 4.03 for the second.

Compared with `Cc1ccc(CN(CC(=O)NO)S(=O)(=O)c2ccccc2)cc1`, `Cc1ccc(OCC(=O)NC(Cc2ccccc2)C(=O)NO)cc1` (stereo not given) is lower in pKi: 3.85 for the first, under 3.52 for the second.

First: CCC(C)C(C(=O)NO)N1C(=O)c2ccccc2C1=O (stereo not given)
Second: COc1ccccc1-c1cc(C(=O)NO)[nH]n1
The pKi of the first is higher: 3.73 for the first, under 3.52 for the second.

`CCCCOc1ccccc1-c1cc(C(=O)NO)[nH]n1` and `Cc1cc(C(=O)NC(Cc2c[nH]c3ccccc23)C(=O)NO)c(C)o1` (stereo not given) cannot be ordered by pKi: under 3.52 for the first, under 3.52 for the second.

`O=C(NO)c1cccc(-c2ccc(CNCC3CCCO3)o2)c1` (stereo not given) and `O=C(Cc1nc(-c2cccnc2)sc1-c1ccc(Cl)cc1)NO` cannot be ordered by pKi: under 3.52 for the first, under 3.52 for the second.

First: Cc1nc(C)c(CCC(=O)NO)c(=O)[nH]1
Second: Cc1[nH]c2ccccc2c1C1c2ccccc2C(=O)N1CC(=O)NO (stereo not given)
The pKi of the first is lower: under 3.52 for the first, 3.85 for the second. The second binds more tightly here.

Work on `O=C(CC1SC(N2CCCC2)=NC1=O)NO` (stereo not given) yielded a pKi of under 3.52.

Target: T1, Botulinum neurotoxin type A

Work on `O=C(CN(Cc1ccccc1)Cc1ccccc1)NO` yielded a pKi of 4.05.
